# Source: patent US6444617B1, “Fused-heterocycle dicarboxylic acid diamide derivatives or salts thereof, herbicide and usage thereof” (Nihon Nohyaku Co., Ltd., priority 1998, dated 2002)
# Legend:
# Type in all cases: in vivo
# soybean plant = experiment: Test Example 4: phytotoxicity to upland crop plants, treatment after emergence; settings: dosage 5 kg/ha, sprayed after emergence, judged 14 days after treatment
# In short: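 Seeds sown in soil and covered. Plants raised to specified leaf stages. Agent with test compound at a prescribed concentration sprayed. Herbicidal effect and crop damage scored after 14 days as weed-killing rate.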
# wheat = experiment: as above; settings: dosage 5 kg/ha, sprayed after emergence, judged 14 days after treatment
# In short: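 Weeds, soybean and wheat were sown in soil-filled vats, covered with soil and grown to set leaf stages before a post-emergence spray of an agent containing the compound at a prescribed concentration. Weed-killing rate and crop phytotoxicity were assessed 14 days after treatment.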
# [1] = system: velvetleaf (Abutilon theophtasti L.), At; experiment: Test Example 3: herbicidal effect on upland weeds before emergence; settings: dosage 5 kg/ha
# In short: (§1)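 Pre-emergence spray of liquid prep, compound at set concentration; read at 14 d post-treatment; weed-kill rate calculated, effect graded.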
# [2] = system: bird's eye speedwell (Veronica persica Poir.), Vp; experiment: as above; settings: dosage 5 kg/ha
# In short: as §1
# [3] = system: forxtail grass (Alopecurus aequalis var. amurensis Ohwi), Am; experiment: as above; settings: foxtail grass, dosage 5 kg/ha
# In short: as §1
# [4] = system: barnyard grass (Echinochloa crus-galli Beauv.), Ec; experiment: as above; settings: dosage 5 kg/ha
# In short: as §1
# [5] = system: cocklebur (Xanthium strumarium L.), Xs; experiment: as above; settings: dosage 5 kg/ha
# In short: as §1
# [6] = system: cleavers (Galium aparine L.), Ga; experiment: as above; settings: dosage 5 kg/ha
# In short: as §1
# [7] = system: velvetleaf (Abutilon theophtasti L.), At; experiment: Test Example 4: herbicidal effect on upland weeds after emergence; settings: dosage 5 kg/ha; sprayed after emergence; judged 14 days after treatment
# In short: (§2)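 Upland weeds and crop plants (soybean, wheat) are grown from seed in soil until they reach given leaf stages, then treated by spraying with the compound-containing agent; effects are judged two weeks later.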
# [8] = system: bird's eye speedwell (Veronica persica Poir.), Vp; experiment: as above; settings: dosage 5 kg/ha; sprayed after emergence; judged 14 days after treatment
# In short: as §2
# [9] = system: forxtail grass (Alopecurus aequalis var. amurensis Ohwi), Am; experiment: as above; settings: dosage 5 kg/ha; sprayed after emergence; judged 14 days after treatment
# In short: as §2
# [10] = system: barnyard grass (Echinochloa crus-galli Beauv.), Ec; experiment: as above; settings: dosage 5 kg/ha; sprayed after emergence; judged 14 days after treatment
# In short: as §2
# [11] = system: cocklebur (Xanthium strumarium L.), Xs; experiment: as above; settings: dosage 5 kg/ha; sprayed after emergence; judged 14 days after treatment
# In short: as §2
# [12] = system: cleavers (Galium aparine L.), Ga; experiment: as above; settings: dosage 5 kg/ha; sprayed after emergence; judged 14 days after treatment
# In short: as §2
# [13] = system: bulrush (Scirpus juncoides Roxb.); experiment: Test Example 1: herbicidal effect on paddy field weeds before emergence; settings: Dosage 5 kg/ha
# In short: (§3)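 Soil in pots is brought to paddy state and seeded with barnyard grass and bulrush; before germination, the soil receives a predetermined dosage of test compound in solution. After twenty-one days, control rate relative to untreated pots is calculated and graded.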
# [14] = system: barnyard grass (Echinochloa crus-galli Beauv.); experiment: as above; settings: Dosage 5 kg/ha
# In short: as §3
# wheat (Wh) = experiment: Test Example 3: phytotoxicity to upland crop plants, treatment before emergence; settings: dosage 5 kg/ha
# In short: (§4)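 Crops treated before emergence with sprayed liquid preparation of compound (prescribed concentration). Day 14: phytotoxicity graded per criterion.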
# soybean plant (So) = experiment: as above; settings: dosage 5 kg/ha
# In short: as §4
# [15] = system: monochoria (Monochoria vaginalis Presl); experiment: Test Example 2: herbicidal effect on paddy field weeds after emergence; settings: Dosage 5 kg/ha; one-leaved stage; 21 days after treatment
# In short: (§5)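 Weeds in flooded paddy-soil pots were grown to the one-leaved stage, then the soil was treated with the compound solution at a set dosage.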
# [16] = system: bulrush (Scirpus juncoides Roxb.); experiment: as above; settings: Dosage 5 kg/ha; one-leaved stage; 21 days after treatment
# In short: as §5
# [17] = system: barnyard grass (Echinochloa crus-galli Beauv.); experiment: as above; settings: Dosage 5 kg/ha; one-leaved stage; 21 days after treatment
# In short: as §5
smiles,measurement,setting,value
CCCNC(=O)c1nc2cnn(C)c2cc1C(=O)Nc1c(CC)ccc(Cl)c1CC [compound 1173],Phytotoxicity So,soybean plant,5 (Crop-killing rate is 100%.)
same,Phytotoxicity Wh,wheat,5 (Crop-killing rate is 100%.)
same,Herbicidal effect At,[1],5 (Weed-killing rate is 100%.)
same,Herbicidal effect Vp,[2],5 (Weed-killing rate is 100%.)
same,Herbicidal effect Am,[3],5 (Weed-killing rate is 100%.)
same,Herbicidal effect Ec,[4],5 (Weed-killing rate is 100%.)
same,Herbicidal effect Xs,[5],5 (Weed-killing rate is 100%.)
same,Herbicidal effect Ga,[6],5 (Weed-killing rate is 100%.)
same,Herbicidal effect At,[7],5 (Weed-killing rate is 100%.)
same,Herbicidal effect Vp,[8],5 (Weed-killing rate is 100%.)
same,Herbicidal effect Am,[9],5 (Weed-killing rate is 100%.)
same,Herbicidal effect Ec,[10],5 (Weed-killing rate is 100%.)
same,Herbicidal effect Xs,[11],5 (Weed-killing rate is 100%.)
same,Herbicidal effect Ga,[12],5 (Weed-killing rate is 100%.)
same,Pre-emergence treatment Bulrush (herbicidal effect),[13],5 (Weed-killing rate is 100%.)
same,Pre-emergence treatment Barnyard grass (herbicidal effect),[14],5 (Weed-killing rate is 100%.)
same,Phytotoxicity Wh,wheat (Wh),5 (Crop-killing rate is 100%.)
same,Phytotoxicity So,soybean plant (So),5 (Crop-killing rate is 100%.)
same,Post-emergence treatment Monochoria (herbicidal effect),[15],5 (Weed-killing rate is 100%.)
same,Post-emergence treatment Bulrush (herbicidal effect),[16],5 (Weed-killing rate is 100%.)
same,Post-emergence treatment Barnyard grass (herbicidal effect),[17],5 (Weed-killing rate is 100%.)
